The METLIN SMRT retention time set (Domingo-Almenara et al. 2019)

Assay: gradient 5% acetonitrile 3 min, to 50% in 2 min, to 85% in 15 min, held 3 min, 100 µL/min
Settings: column: Zorbax Extend-C18 2.1 x 50 mm; eluents: water / acetonitrile, 0.1% formic acid
In short: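 Retention times come from adduct peaks that were picked computationally and then checked by hand. The standards, pure and pooled in mixtures of ~100 molecules, were run on a Zorbax Extend-C18 column (2.1 × 50 mm, 1.8 μm) at 100 μL/min with water and acetonitrile, each with 0.1% formic acid. Detection was by quadrupole time-of-flight mass spectrometry in positive and negative ionization mode, with a dead volume of 40 μL and a dwell volume of 900 μL.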

Compound	RP-LC retention time [s]
CC1=NS(=O)(=O)N(Cc2ccccc2)C=C1C(=O)OCc1ccc(F)cc1	1080
O=C1COc2ccc(Cl)cc2N1Cc1nc(-c2ccc(OC(F)(F)F)cc2)no1	1210
COCc1cnc2c(c1SCc1cccc(Cl)c1)c(=O)n(C)c(=O)n2C	1060
Fc1cccc2sc(NCc3ccccn3)nc12	594
Cc1ccc(-c2noc(-c3cccc(S(=O)(=O)N4CCOCC4)c3)n2)cc1	1120
CNC(=O)c1cc(-c2ccc(F)cc2)n[nH]1	659
COCCCNS(=O)(=O)c1cc(-c2[nH]ncc2C(=O)N2CCCCC2)oc1C	646
O=C(CC1CCN(C(=O)Nc2cccc(Cl)c2)CC1)N1CCN(c2ccccn2)CC1	630
CC(C)n1c(=O)c(NCc2ccccc2Cl)nc2ccncc21	596
CCCN1CCN(c2ncnc3sc(C(=O)NCCCN4CCCC4)c(C)c23)CC1	583
Cc1nnc2c(=O)n(CC(=O)NCCN3CCc4ccccc4C3)c3cccnc3n12	738
Cc1oc2c(c1C(=O)Nc1ccccc1Br)C1=NCCN1C=N2	628
CCCCc1ccc(NC(=O)N2CCc3nc[nH]c3C2)cc1	675
CS(=O)(=O)N1CCCC(C(=O)N(Cc2ccccc2)Cc2ccccc2)C1 (centres undefined)	886
Cn1nc(C(=O)N2CCOCC2)c2c1CCN(C(=O)Nc1ccccc1Br)C2	674
Cn1ncc2c(N3CCSCC3)nc(C(=O)NCc3cccs3)nc21	778
O=C1CCN(C(=O)C2CCN(C(=O)CN3CCCC3=O)CC2)CCCCCCN1	572
COc1ccccc1-c1nc2cnccn2c1NCCC(=O)NC1CCCCCC1	715
COc1ccc(Cl)cc1S(=O)(=O)N1CCc2nn(C)c(=O)n2CC1	712
CC(=O)N1c2ccc(S(=O)(=O)N3CCCC3C(=O)Nc3cc(C)ccn3)cc2CC1C (centres undefined)	617
CC(=O)N1CCc2[nH]c3ccc(C(=O)NCc4ccc(N5CCOCC5)cc4)cc3c2C1	635
O=C(Cc1ccccc1Cl)N1CCCC1c1nc(-c2ccccc2)no1 (centres undefined)	1020
CCn1ccc2c(cc(C(=O)Nc3ccc(F)cc3Cl)n2C)c1=O	776

Compound	RP-LC retention time [s]
CCCC1c2nccn2CCCN1C(=O)Cc1c(C)noc1C (centres undefined)	579
Cc1nnc(N2CCCC(C(=O)NCc3cccc(Cl)c3)C2)c2nn(-c3ccccc3)c(C)c12 (centres undefined)	674
CCc1nc2cc(-c3noc(-c4cccs4)n3)ccc2o1	1080
Nc1cc(C2CCN(C(=O)Nc3ccccc3F)CC2)no1	649
Cc1nc(-c2csc(S(=O)(=O)N3CCN(c4ccccc4Cl)CC3)c2)sc1C	1320
CCc1ccc(-c2cc(C)no2)cc1S(=O)(=O)N1CCN(c2ccccn2)CC1	757
Cc1nn(-c2ccccc2)c(C)c1S(=O)(=O)N1CCC(C(=O)NC2CCCCCC2)CC1	965
Cc1onc(-c2ccc(Br)cc2)c1C(=O)NCc1cccs1	988
CCOC(=O)COc1cc(-c2ccc(C)cc2)nc2ccc(NC(=O)c3ccco3)cc12	778
CN(CCNC(=O)c1ccc2c(c1)N(S(C)(=O)=O)CC2)C1CCCCC1	610
COc1cccc(-c2noc(C3CCCN3C(=O)C3CCC3)n2)c1 (centres undefined)	912
CCCn1cc(S(=O)(=O)NCc2ccccc2Cl)c2cccnc21	912
Cc1ccccc1NC(=O)C(C)n1nc(C)c2nn(-c3ccccc3)c(-n3cccc3)c2c1=O (centres undefined)	1090
COc1ccc2c(c1)Cc1sc(NC(=O)c3ccc(Br)cc3)nc1-2	1130
COc1ccc(-n2cc(C(=O)OCc3cccnc3)c3ccccc3c2=O)cc1	745
COc1ccc(-c2c(C)noc2NC(C)=O)cc1S(=O)(=O)Nc1ccc2c(c1)OCCO2	707
CC(C)c1ccc(NC(=O)C2CCCN(c3ncnc4c3nc3n4CCCCC3)C2)cc1 (centres undefined)	899
O=C(C1CCCN(c2nnc(N3CCCC3=O)s2)C1)N1CCN(c2ccccn2)CC1 (centres undefined)	582
COC(=O)c1ccc(CNC2CCN(c3ccc(C(=O)NC4CC4)cn3)C2)cc1 (centres undefined)	552
CCN(CC)S(=O)(=O)c1ccc(C)c(-c2nnc(-c3ccc(Cl)cc3)o2)c1	1200
CCC1Oc2ccc(S(=O)(=O)N3CCC(C(=O)NCc4ccc(Cl)cc4)CC3)cc2NC1=O (centres undefined)	887
O=C(NC1CC1)C1CCN(c2nc3ccsc3c(=O)n2Cc2ccc(F)cc2)CC1	768
CC(C)CNC(=O)CCc1nc2ccccc2n(CC(=O)NCc2ccc3c(c2)OCO3)c1=O	748

Compound	RP-LC retention time [s]
COc1ccc(-c2nnc(Cc3nc(-c4ccc5c(c4)OCO5)no3)o2)cc1	916
CC(C)c1ccc(NC(=O)C2CCN(C(=O)C(C)(C)C)CC2)cc1	907
CCC(C(=O)NCc1ccccn1)n1c2ccccc2c2cnn(C)c(=O)c21 (centres undefined)	634
O=C(Cn1c(=O)c2cc(C3CC3)nn2c2ncccc21)Nc1cccc(F)c1	778
CCN(CC)CCNC(=O)c1nnc(-c2ccc(S(=O)(=O)N3CCCC3)cc2)o1	670
CCCN(C(=O)c1ccc(Br)cc1)C1(C(=O)NCc2ccccc2)CCN(C(C)=O)CC1	626
NC(=O)CSc1nnc(N2CCN(C(=O)c3ccccc3[N+](=O)[O-])CC2)s1	567
COc1ccccc1CNC(=O)c1cn2cc(C)ccc2n1	681
CCOc1ccc(OCC)c(NC(=O)C(C)Oc2ccc(=O)n(-c3ccc(F)cc3)n2)c1 (centres undefined)	953
COCCn1cc2c3c(cccc31)CN(C(=O)Nc1ccc(C)c(C)c1)CC2	1020
CCc1nc2cc(-c3noc(-c4ccc(OC)cc4OC)n3)ccc2o1	1080
Cc1ccc2nc(-c3ccc(C)c(NC(=O)c4cccs4)c3)[nH]c2c1	681
Cc1[nH]c2ccccc2c1C(=O)C(=O)NCCn1ccc2ccccc21	844
COc1cc(OC)cc(N2C(=O)C3N=NN(Cc4nc(-c5ccc(OC)cc5OC)no4)C3C2=O)c1 (centres undefined)	865
O=c1c2sccc2n(Cc2nc(-c3ccccc3)no2)c(=O)n1-c1ccc(Cl)cc1	1040
CCOc1ccc(/C=C/c2nc(C#N)c(NCCN(C)C)o2)cc1	668
CCn1c(=O)c2ccn(CC(=O)NCc3ccc(C)cc3)c2n(CC)c1=O	706
O=C(Cn1nc2c(cc1=O)CCCCC2)Nc1cccc(N2CCCCS2(=O)=O)c1	762
O=C(c1ccco1)N1c2ccccc2CC1c1nnc(C2CCOCC2)o1 (centres undefined)	729
Cc1ccc(CN2CCCC(c3nncn3Cc3ccccc3)C2)o1 (centres undefined)	745
COc1ccccc1CNC(=O)CN1CCN(Cc2ccc(F)cc2Cl)C1=O	858
O=C(c1csc(Nc2ccccc2)n1)N1CCN(c2ccccc2F)CC1	911
Cc1ccnc(NS(=O)(=O)c2ccc(NC(=O)c3cn(C)nc3C)cc2)n1	589

Compound	RP-LC retention time [s]
CCCCC(C)C(=O)NC1CCN(C2=NS(=O)(=O)C(c3ccc(C)c(C)c3)=C2C)CC1 (centres undefined)	987
CCCn1cc(CCNC(=O)Nc2cccc(Cl)c2C)c2cccnc21	889
COc1ccc(-c2ccc(=O)n(Cc3nc(-c4ccc(Cl)c(F)c4)no3)n2)cc1	1080
CS(=O)(=O)N1CCC(C(=O)Nc2ccc(Br)cc2F)Oc2ccccc21 (centres undefined)	990
COc1ccc(NC(=O)Nc2c(-c3ccc(C)cc3)nc3ccccn23)cc1OC	927
CCC(c1cccs1)N1C(=O)[C@H]2CN(S(=O)(=O)c3cc(F)ccc3F)C[C@H]2C1=O (some centres undefined)	936
Cc1ccc(-c2nc3n(CC(=O)NC4CC4)c4c(c(=O)n3n2)CCC4)cc1	702
CCSc1nnc(NC(=O)c2nn(-c3ccc(F)cc3)cc2OC)s1	881
Cn1cc(C(=O)N2CC(Oc3ccc(-c4nc(-c5ccccc5)no4)cc3)C2)cn1	941
CCC(C)C(NC(=O)c1cc(F)cc(F)c1)C(=O)Nc1nc2ccccc2[nH]1 (centres undefined)	787
Cc1oc2c(c1C(=O)NC(C)c1ccccc1)C1=NC(C)(C)CN1C=N2 (centres undefined)	653
O=C(c1cccs1)N1CCN(c2nnc3ccccn23)CC1	608
CCc1nnc(-c2ccc3ccn(CC(=O)NCc4ccc(OC)c(OC)c4)c3c2)o1	745
O=C(O)c1ccc(NCc2nc3ccccc3[nH]2)cc1	896
CCCSCCCNC(=O)Cn1cnc2nc3c(cc2c1=O)CCCC3	739
Cc1ccc(-c2nnc(Cc3nc(-c4ccc(OCC(C)C)cc4)no3)o2)cc1F	919
Cc1ccc(C2Cn3cnc(C(=O)N4CCC(C(=O)NC5CCCC5)CC4)c3CO2)cc1 (centres undefined)	749
Cc1cc(=O)n(CC(=O)N2CCCc3ccccc32)c(N2CCCC2)n1	665
O=C(CSc1nc(N2CCc3ccccc3C2)nc2ccccc12)NC1CCCCC1	728
COc1cc(C(=O)N2CCC(CC(=O)NC3CC3)CC2)cc(OC)c1OC	647
